The values below come from publication PMC5547393, “Aromatase inhibitory activity of 1,4-naphthoquinone derivatives and QSAR study” (EXCLI Journal, 2017).

The subject of data set [1] is MRC-5 cell line. Further details: method as in Prachayasittikul et al., 2014[35]. The settings on record: normal MRC-5 cell line, ref Prachayasittikul et al., 2014[35], cited from earlier work; for IC50: read-out: MRC-5 (µM) cytotoxicity.
Data set [2] has as its target T1, recombinant human aromatase (CYP19) (Homo sapiens, UniProt P11511).
T1 sequence (P11511 1-503): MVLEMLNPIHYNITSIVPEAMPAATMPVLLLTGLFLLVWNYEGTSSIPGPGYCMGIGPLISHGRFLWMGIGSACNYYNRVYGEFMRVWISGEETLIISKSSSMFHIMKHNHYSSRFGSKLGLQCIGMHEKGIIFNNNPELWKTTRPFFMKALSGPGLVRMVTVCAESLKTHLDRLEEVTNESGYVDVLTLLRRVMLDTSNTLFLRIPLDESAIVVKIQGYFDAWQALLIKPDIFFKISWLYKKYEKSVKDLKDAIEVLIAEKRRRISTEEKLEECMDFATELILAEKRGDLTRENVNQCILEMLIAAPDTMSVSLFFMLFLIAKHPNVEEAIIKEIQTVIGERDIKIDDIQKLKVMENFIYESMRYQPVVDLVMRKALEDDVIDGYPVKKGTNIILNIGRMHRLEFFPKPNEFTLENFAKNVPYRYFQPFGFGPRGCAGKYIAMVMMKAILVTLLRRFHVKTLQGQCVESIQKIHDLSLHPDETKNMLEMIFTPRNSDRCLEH
Briefly: Aromatase inhibition assay (Gentest kit, CYP19 with DBF fluorometric substrate). The settings on record: for Aromatase inhibitory activity category: category by experimental IC50.
Experimental: The assay was performed with a Gentest kit using enzyme CYP19 and DBF as a fluorometric substrate. DBF was dealkylated by aromatase and then hydrolyzed, yielding the fluorescein product. […] After the incubation at 37 °C for 30 min, the reaction was terminated by adding 50 µL of 2.2 N NaOH. […] The percentage of inhibition (% inhibition) was calculated using Equation 1. […] IC50 values were determined by plotting concentrations versus % inhibition.

Data set [3] concerns MRC-5 cell line. Briefly: Cytotoxicity against the normal MRC-5 cell line. To be noted: MRC-5 cytotoxicity versus aromatase IC50. Format: cell-based. From the text: The cytotoxicity of compounds 1-11 against the normal MRC-5 cell line (Table 1(Tab. 1)) was previously documented (Prachayasittikul et al., 2014[35]).
For another data set, the target named is aromatase. Briefly: QSAR (MLR) prediction of aromatase inhibitory activity. To be noted: for pIC50 fold greater than parent compound 1: predicted pIC50 versus experimental pIC50 0.301 of compound 1; for folds more potent than the compared analogue: pairs: 6c > 6, 7c > 7, 7a > 7, 6 > 6a, 7b > 7a, pIC50 based. The text has this:
Conceptually, a QSAR model was constructed using the data obtained from experimentally tested compounds (1-11). The constructed model was subsequently used to predict the activity of the additional set of structurally modified compounds (series 1-11) that were generated in silico.
Chemical structures of the tested compounds (1-11) along with their experimental IC50 values were used to construct the QSAR model. The IC50 values were converted to pIC50 values by taking the negative logarithm to base 10 (-log IC50) to obtain a normal distribution of data points.
The chemical structures of 11 tested compounds (1-11) and 39 structurally modified compounds (series 1-11) were drawn using the GaussView software (Dennington et al., 2003[11]). Optimization was performed to obtain the low-energy conformers for further calculation of molecular descriptor values. The compounds were geometrically optimized using Gaussian 09 (Frisch et al., 2009[13]) at the semi-empirical Austin Model 1 (AM1) level, followed by density functional theory (DFT) calculation using Becke's three-parameter hybrid method with the Lee-Yang-Parr correlation functional (B3LYP) together with the 6-31g(d) level. A set of 13 quantum chemical descriptors, i.e., mean absolute atomic charge (Qm), total energy (Etotal), total dipole moment (μ), highest occupied molecular orbital energy (EHOMO), lowest unoccupied molecular orbital energy (ELUMO), energy difference of HOMO and LUMO (HOMO-LUMOGap), electron affinity (EA), ionization potential (IP), Mulliken electronegativity (χ), hardness (η), softness (S), electrophilic index (ωi) and electrophilicity (ω), was extracted using a script developed in-house. The optimized structures were further calculated to obtain an additional set of 3,224 molecular descriptors using Dragon software version 5.5 (Talete, 2007[44]). The molecular descriptors obtained from the Dragon software included 22 classes, i.e., Constitutional descriptors, Topological descriptors, Walk and path counts, Connectivity indices, Information indices, 2D autocorrelation, Edge adjacency indices, Burden eigenvalues, Topological charge indices, Eigenvalue-based indices, Randic molecular profiles, Geometrical descriptors, RDF descriptors, 3D-MoRSE descriptors, WHIM descriptors, GETAWAY descriptors, Functional group counts, Atom-centered fragments, Charge descriptors, Molecular properties, 2D binary fingerprints and 2D frequency fingerprints.
Correlation-based feature selection was employed to initially select important descriptors from a large set of descriptors obtained from the calculation. The pair-correlation of each descriptor value and bioactivity (pIC50) was calculated using a Pearson's correlation coefficient (r) of 0.6 as a cut-off value. Descriptors with |r| < 0.6 were considered weakly correlated descriptors and were excluded from the study, whereas those with |r| ≥ 0.6 were selected for further selection process using stepwise multiple linear regression (MLR) as implemented in SPSS statistics 18.0 (SPSS Inc., USA[41]). Finally, a set of important descriptors was obtained for multivariate analysis.
Multivariate analysis was performed by Waikato Environment for Knowledge Analysis (WEKA) version 3.4.5 (Witten et al., 2011[47]) using a multiple linear regression (MLR) algorithm. Selected descriptor values and pIC50 values were assigned as independent variables (X) and dependent variables (Y), respectively. The MLR model was constructed according to Equation 2: […]
The data set was divided into a training set and a testing set by means of leave-one-out cross validation (LOO-CV). Conceptually, one sample was removed from the entire data set (N) and was used as the testing set, whereas the remaining samples (N-1) were used as the training set. The same sampling process was continued until every sample in the data set was used as the testing set to predict the variable Y (activity). […]

The mark [4] stands for this setting: Aromatase inhibitory activity IC50, Inactive = % inhibition ≤ 50 % at 12.5 µM.
[5] abbreviates: Experimental aromatase inhibitory activity (pIC50), -log IC50 of the experimental IC50 values.

`O=C1C(Cl)=C(Cl)C(=O)c2ccccc21` [Compound 1, 2,3-dichloro-1,4-naphthoquinone]: the IC50 in the data set on MRC-5 cell line [1] was 23 ± 0.42 µM; in data set [2] (setting [4]), 0.5 ± 0.3 µM; in data set [2] (setting [5]), 0.5 µM. Moreover, the “IC50 fold lower than ketoconazole” value in data set [2] came out at 5.2 fold. Besides, the “Aromatase inhibitory activity category” value in data set [2] is given as “highly active (highly active (IC50 < 1 µM))”. Besides, in the data set with MRC-5 cell line [3], the “SI (selectivity index)” value came out at 45.98.

Take `O=C1C(Br)=C(Br)C(=O)c2ccccc21` [Compound 1a]: the “pIC50 fold greater than parent compound 1” value on aromatase is 1.83 fold.

Regarding `O=C1C(I)=C(I)C(=O)c2ccccc21` [Compound 1b], the “pIC50 fold greater than parent compound 1” value at aromatase is 11.90 fold. In addition, the “pIC50 fold greater than letrozole” value at aromatase (predicted pIC50 versus experimental pIC50 […] of letrozole) is reported as 1.03 fold.

`O=C1C(F)=C(F)C(=O)c2ccccc21` [Compound 1c]: the “pIC50 fold greater than parent compound 1” value on aromatase is recorded as 2.04 fold.

As to `CCCCNC1=C(Cl)C(=O)c2ccccc2C1=O` [Compound 2], the “MRC-5 (µM) cytotoxicity” value in the data set with MRC-5 cell line [1] is reported as “non-cytotoxic”. The IC50 in data set [2] (setting [4]) is 8.7 ± 0.9 µM; in data set [2] (setting [5]), 8.71 µM. Besides, in data set [2], the “Aromatase inhibitory activity category” value is on record as “moderately active (moderately active (1 µM < IC50 < 10 µM))”.

With `O=C1C(Cl)=C(Nc2ccccc2)C(=O)c2ccccc21` [Compound 3], the IC50 with MRC-5 cell line [1] is 16.4 ± 1.28 µM. Moreover, the “Aromatase inhibitory activity category” value in data set [2] is “inactive”.

In the case of `CN(C1=C(Cl)C(=O)c2ccccc2C1=O)c1ccccc1` [Compound 4], the IC50 in the data set on MRC-5 cell line [1] is 8.6 ± 0.77 µM; in data set [2] (setting [4]), 0.5 ± 0.4 µM; in data set [2] (setting [5]), 0.5 µM. In addition, in data set [2], the “Aromatase inhibitory activity category” value is recorded as “highly active (highly active (IC50 < 1 µM))”. Also, the “SI (selectivity index)” value in the data set on MRC-5 cell line [3] was 17.20.

For the molecule `CCN(C1=C(Cl)C(=O)c2ccccc2C1=O)c1ccccc1` [Compound 4a], the “pIC50 fold greater than parent compound 1” value at aromatase was 1.08 fold. Further, the “fold less potent than letrozole” value in the data set on aromatase (predicted pIC50 versus letrozole) is 10.68 fold.

Take `O=C(O)c1ccccc1NC1=C(Cl)C(=O)c2ccccc2C1=O` [Compound 5]: the IC50 was 86 ± 3.04 µM with MRC-5 cell line [1], 18 µM in data set [2] (setting [4]) and 18 µM in data set [2] (setting [5]). Besides, the “Aromatase inhibitory activity category” value in data set [2] is given as “weak”. Further, in the data set on MRC-5 cell line [3], the “SI (selectivity index)” value is 4.78.

`CN(C1=C(Cl)C(=O)c2ccccc2C1=O)c1ccc(C(=O)O)cc1` [Compound 5d]: in the data set with aromatase (predicted pIC50 -0.329 versus ketoconazole pIC50 -0.415), the “folds more potent than ketoconazole” value was 1.26 folds.

Turning to `CC(=O)c1cccc(NC2=C(Cl)C(=O)c3ccccc3C2=O)c1` [Compound 6], the IC50 is 15.5 ± 0.75 µM with MRC-5 cell line [1], 3.1 µM in data set [2] (setting [4]) and 3.1 µM in data set [2] (setting [5]). For the same molecule, the “Aromatase inhibitory activity category” value in data set [2] is given as “moderately active (moderately active (1 µM < IC50 < 10 µM))”. Besides, the “folds more potent than the compared analogue” value in the data set on aromatase is 1.83 folds. In addition, the “SI (selectivity index)” value in the data set on MRC-5 cell line [3] is 5.01.

Take `CC(=O)c1cccc(N(C)C2=C(Cl)C(=O)c3ccccc3C2=O)c1` [Compound 6c]: the “folds more potent than the compared analogue” value in the data set with aromatase is listed as 1.67 folds.

On to `CC(=O)c1ccc(NC2=C(Cl)C(=O)c3ccccc3C2=O)cc1` [Compound 7], for which the IC50 with MRC-5 cell line [1] is 12.3 ± 1.08 µM; in data set [2] (setting [4]), 5.3 µM; in data set [2] (setting [5]), 5.3 µM. In addition, the “Aromatase inhibitory activity category” value in data set [2] is “moderately active (moderately active (1 µM < IC50 < 10 µM))”. The “SI (selectivity index)” value with MRC-5 cell line [3] is 2.32.

As to `O=C1C(Cl)=C(Nc2ccc(C(=O)C(F)(F)F)cc2)C(=O)c2ccccc21` [Compound 7a], the “folds more potent than the compared analogue” value in the data set on aromatase is recorded as 1.47 folds.

Consider `CN(C1=C(Cl)C(=O)c2ccccc2C1=O)c1ccc(C(=O)C(F)(F)F)cc1` [Compound 7b], for which the “folds more potent than the compared analogue” value in the data set with aromatase is 2.28 folds.

`CC(=O)c1ccc(N(C)C2=C(Cl)C(=O)c3ccccc3C2=O)cc1` [Compound 7c]: the “folds more potent than the compared analogue” value in the data set on aromatase was 2.73 folds.

In the case of `O=C1C(Cl)=C(Nc2ccc(Nc3ccccc3)cc2)C(=O)c2ccccc21` [Compound 8], the IC50 with MRC-5 cell line [1] is 20.8 ± 0.68 µM; in data set [2] (setting [4]), 1.9 µM; in data set [2] (setting [5]), 1.9 µM. The “Aromatase inhibitory activity category” value in data set [2] was “moderately active (moderately active (1 µM < IC50 < 10 µM))”. In the data set with MRC-5 cell line [3], the “SI (selectivity index)” value turned out to be 10.94.

With `O=C1C(Cl)=C(Nc2cccc3cccnc23)C(=O)c2ccccc21` [Compound 9], the IC50 is 13.6 ± 1.33 µM with MRC-5 cell line [1], 4.7 µM in data set [2] (setting [4]) and 4.7 µM in data set [2] (setting [5]). In data set [2], the “Aromatase inhibitory activity category” value is “moderately active (moderately active (1 µM < IC50 < 10 µM))”. For the same molecule, in the data set with MRC-5 cell line [3], the “SI (selectivity index)” value is listed as 2.89.

As for `O=C1C(Cl)=C(NCCc2ccccc2)C(=O)c2ccccc21` [Compound 10], the “MRC-5 (µM) cytotoxicity” value in the data set on MRC-5 cell line [1] was “non-cytotoxic”. The IC50 in data set [2] (setting [4]) and in data set [2] (setting [5]) was 3.3 µM in each case. Further, in data set [2], the “Aromatase inhibitory activity category” value is “moderately active (moderately active (1 µM < IC50 < 10 µM))”.

As to `COc1ccc(CCNC2=C(Cl)C(=O)c3ccccc3C2=O)cc1OC` [Compound 11], the “MRC-5 (µM) cytotoxicity” value with MRC-5 cell line [1] was “non-cytotoxic”. In data set [2], the “Aromatase inhibitory activity category” value was “inactive”.

Consider `COc1cccc2c1C(=O)c1c(O)c3c(c(O)c1C2=O)C[C@@](O)(C(=O)CO)C[C@@H]3O[C@H]1C[C@H](N)[C@H](O)[C@H](C)O1` [Doxorubicin, reference compound], for which the “MRC-5 (µM) cytotoxicity” value with MRC-5 cell line [1] is recorded as “non-cytotoxic”.
